Data published in patent US11179363B2, “Non-steroidal selective glucocorticoid receptor agonistic modulators (SEGRAMs) and uses thereof” (ASSOCIATION POUR LA RECHERCHE À L'IGBMC (ARI), priority 2017, dated 2021).

Experiments:
adrenal glands = assay: Corticosterone synthesis and adrenal gland after three-month treatment; format: in vivo, B6 male mice; conditions: three months
[1] = test system: DSS-induced Th17 ulcerative colitis; assay: Dextran sodium sulfate (DSS)-induced ulcerative colitis; format: in vivo, Balb/C mice
Experimental: To investigate the anti-inflammatory activity of CpdX and CpdX-D3 on a Th17 ulcerative colitis, Balb/C mice were treated with 3% DSS in drinking water for 13 days, with or without an intraperitoneal administration of either Dex, CpdX, CpdX(eA), CpdX(eB), CpdX-D3, CpdX-D3(eA) or CpdX-D3(eB) (1 mg/kg of body weight) on D11, D12 and D13.
At D14, RNA transcripts were extracted from mouse colons. IL-1β, IL-6, IL-17a, IL-17f, TSLP and MMP13 transcripts were analyzed by q-RT-PCR. Colon samples were also harvested for histological analyses (with H&E staining).

[2] = test system: dorsal skin of Balb/C mice; assay: Skin epidermis atrophy after 8-day topical treatment of dorsal skin; format: in vivo; conditions: eight-day topical treatment
[3] = test system: thymus, spleen, adrenal gland and kidney; assay: Organ weights (thymus, spleen, adrenal gland, kidney) after three-month treatment; format: in vivo, B6 male mice; conditions: s.c. 1 mg/kg daily, three months
Experimental: B6 male mice (8-week-old) were daily subjected for three months to a subcutaneous injection of either vehicle (NaCl 0.9%), Dex, CpdX, CpdX(eA), CpdX(eB), CpdX-D3, CpdX-D3(eA) or CpdX-D3(eB) (1 mg/kg body weight, diluted in vehicle). Following these treatments, four organs (thymus, spleen, adrenal gland and kidney) were harvested and weighted.

[4] = test system: OVA-induced allergic conjunctivitis; assay: Ovalbumin (OVA)-induced allergic conjunctivitis; format: in vivo, Balb/C mice; conditions: 0.1% instillation D22 to D24, 20 minutes after the last OVA challenge
Experimental: To investigate the anti-inflammatory effect of CpdX or CpdX-D3 on an allergic conjunctivitis, Balb/C mice were intraperitoneally sensitized with 50 μg OVA with alum on both days D1 and D8, and then challenged from D15 to D21 with 250 μg OVA in 5 μL of sterilized vehicle (0.9% NaCl), which were directly instilled onto the conjunctival sac. From D22 to D24, mice were divided into several groups, and received instillations with either OVA alone, OVA together with 0.1% of either Dex, CpdX, CpdX(eA), CpdX(eB), CpdX-D3, CpdX-D3(eA) or CpdX-D3(eB).
The clinical appearance of mouse eyes was evaluated 20 minutes after the last instillation on D24. Clinical signs (conjunctival hyperemia, lid edema and tearing) were scored to evaluate the occurrence and severity of conjunctivitis as described by Gimenes et al. (2015. Experimental Eye Research 134:24-32). Parameters were graded on a scale ranging from 0 to 3, (0=absence, 1=mild, 2=moderate, and 3=severe symptoms), each animal receiving a total clinical score ranging from 0 to 9. The data were expressed as mean±SEM with at least four mice per treatment.

[5] = test system: HDM-induced asthma-like allergic lung inflammation; assay: House dust mite (HDM)-induced asthma-like allergic lung inflammation; format: in vivo, mice; conditions: HDM model
Experimental: Glucocorticoids have been (Pearlman et al., 1997. Ann Allergy Asthma Immunol. 78(4):356-62), and are still, widely used in asthma therapy. In order to investigate the possible CpdX anti-inflammatory activity in vivo, mice were sensitized and challenged with either ovalbumin (OVA) or house dust mite (HDM) to induce an asthma-like allergic lung inflammation.
Mice were intranasally sensitized with 1 μg HDM from D0 to D4, and further intranasally sensitized with 10 μg HDM on D14 and D21. Mice were then subdivided into eight groups, and on D29, D30 and D31, each mouse was again intranasally challenged with […]. The first seven groups received respectively 0.5 mg/kg of body weight of Dex, CpdX, CpdX(eA), CpdX(eB), CpdX-D3, CpdX-D3(eA) or CpdX-D3(eB), while the eighth group served as a control.
On D32, the airway responsiveness was invasively determined using a computer-controlled small animal ventilator (FlexVent® system, SCIREQ Technologies). Mice were anesthetized with xylazine (15 mg/kg, i.p.), followed 15 minutes later by an i.p. injection of pentobarbital sodium (54 mg/kg). An 18-gauge metal needle was then inserted into the trachea, each mouse was connected to the FlexVent® ventilator and quasi-sinusoidally ventilated with a tidal volume of 10 mL/kg at a frequency of 150 breaths/minute and a positive end-expiratory pressure of 2 cm H2O, in order to achieve a mean lung volume close to spontaneous breathing. After baseline measurement, mice were challenged for 10 seconds with a saline aerosol and, at 4.5-minute intervals, with 50 mg/mL methacholine. Airway resistance and elastance were expressed as cmH2O.s/mL and cmH2O/mL respectively.
The lung allergic inflammation was assessed by examination of the bronchoalveolar lavage (BAL) fluid from each of these HDM-challenged mice. The total BAL cells, eosinophils, neutrophils, macrophages and lymphocytes were counted. RNA transcripts were extracted from lung samples. RNA transcripts of IL-1β, IL-6, IL-4, IL-5, IL-13, Eotaxin, CCL4, IL-10 and TNFα were analyzed by q-RT-PCR. Lung tissues were harvested and histological (with H&E staining) and immunohistochemical analyses were also carried out (with eosinophil-specific and neutrophil-specific antibodies).

[6] = i.p. 1 mg/kg on D11, D12, D13, 3% DSS 13 days

[2H]C([2H])([2H])Oc1ccc(F)cc1C(C)(C)CC(O)(CNc1ccc2c(c1)COC2=O)C(F)(F)F (single isomer, unassigned; enantiomer a) [CpdX-D3(eA), 5-{4-[2-(methoxy-D3)-5-fluorophenyl]-2-hydroxy-4-methyl-2-(trifluoromethyl)pentylamino}isobenzofuran-1(3H)-one enantiomer A]
cortex layers, most notably the fasciculata zone, of the adrenal glands (histology) (adrenal glands; s.c. 1 mg/kg daily): markedly increased
transcripts of Cyp11a, Cyp11b1 and HSD3β genes in adrenal glands (corticosterone synthesis pathway) (adrenal glands; s.c. 1 mg/kg daily, q-RT-PCR): increased
plasmatic corticosterone level at 10 a.m. (adrenal glands; vs Vehicle): much higher
pro-inflammatory genes overexpressed in DSS-induced ulcerative colitis (IL-1β, IL-6, IL-17a, IL-17f, TSLP, MMP13) ([1]; colon, q-RT-PCR, D14): similarly repressed
colonic villus/crypt structure (histology) [1, 6]: almost reestablished
mucosal and submucosal cell infiltration (histology) [1, 6]: significantly decreased
epidermal thickness (morphometric analyses) [2]: not significantly decreased
thymus apoptosis (thymus weight) [3]: did not result in any significant thymus apoptosis
clinical signs of allergic conjunctivitis (conjunctival hyperemia, lid edema and tearing) [4]: considerably reduced
total number of BAL cells, eosinophils and lymphocytes ([5]; 0.5 mg/kg, D32, vs control group, 0.5 mg/kg): efficiently decreased
peribronchiolar and perivascular inflammatory cell infiltration (histology) ([5]; lung paraffin sections): decreased
lung expression of pro-inflammatory genes (IL-1β, IL-6, IL-4, IL-5, IL-13, Eotaxin, CCL4) ([5]; q-RT-PCR): efficiently decreased
